Results taken from publication PMC12040169 (PLOS Biology, 2025).

Test: in vitro
Conditions: human, hela cells, % viability

| Structure (SMILES) | viability at 28.5 h, 10 µM [%] |
| --- | --- |
| O=C(Cn1ncc2cccn2c1=O)OC1CCCCC1 [CBK283667] | 91.8 |
| O=C(c1c(F)cccc1F)N1CCC(O)(c2ccccn2)CC1 [CBK283670] | 105 |
| O=C(c1ccc(F)cc1F)N1CCC(O)(c2ccccn2)CC1 [CBK283671] | 107 |
| O=C(Cn1ncc2cccn2c1=O)Nc1ccc(F)cc1 [CBK283672] | 107 |
| CCc1nn(CC(=O)N2CCC(C)CC2)c(=O)c2cc3occc3n12 [CBK283675] | 76.4 |
| CCc1nn(CC(=O)N2CCCCC2C)c(=O)c2cc3occc3n12 (stereo not drawn) [CBK283676] | 67.5 |
| c1coc(-c2nc3cnccn3c2NC2CCCC2)c1 [CBK283678] | 90.6 |
| CC(C)n1cc(C(=O)N2CCCCC2c2nc3ccccc3[nH]2)cn1 (stereo not drawn) [CBK283679] | 102 |
| CC1CCCC(C)N1C(=O)Cn1ncc2cccn2c1=O (stereo not drawn) [CBK283680] | 101 |
| Fc1ccccc1-c1nc2cnccn2c1NCc1ccco1 [CBK283681] | 84.9 |
| O=C(CN1CCC(c2ccc(F)cc2)CC1)N1CCOCC1 [CBK283683] | 88.4 |
| O=C1CC2(CCN(C(=O)C3CCCC3)CC2)Oc2ccc(F)cc21 [CBK283686] | 80.2 |
| Cc1oc(C2CC2)cc1C(=O)N1CCn2c(nnc2C2CC2)C1 [CBK283687] | 94.9 |
| O=C(c1cccnc1)C1CCN(C(=O)Cc2ccccc2Cl)CC1 [CBK283690] | 90.3 |
| O=c1oc(-c2ccncc2)nn1Cc1ccccc1F [CBK283692] | 89.1 |
| Cc1ccc(CNc2c(-c3ccco3)nc3cnccn23)cc1 [CBK283693] | 89.3 |
| Fc1ccc(CNc2c(-c3ccco3)nc3cnccn23)cc1 [CBK283694] | 92 |
| CC(C)n1c(=O)n(CC(=O)N(C)C2CCCCC2)c2cccnc21 [CBK283695] | 95.6 |
| CC(C)n1c(=O)n(CC(=O)NC2CCCCC2)c2cccnc21 [CBK283696] | 99 |
| CC1CCCCC1NC(=O)Cn1c(=O)n(C(C)C)c2ncccc21 (stereo not drawn) [CBK283697] | 88.8 |
| CC(C)n1c(=O)n(CC(=O)NCc2cccs2)c2cccnc21 [CBK283699] | 88.6 |
| CC(C)n1c(=O)n(CC(=O)NC2CCCC2)c2cccnc21 [CBK283700] | 89.2 |
| O=C(Cn1ncc2cccn2c1=O)Nc1cccc(F)c1 [CBK283702] | 89.8 |
| O=C(NCCn1nc(-c2ccco2)ccc1=O)c1cccs1 [CBK283704] | 92.5 |

| Structure (SMILES) | viability at 28.5 h, 10 µM [%] |
| --- | --- |
| O=C(NCCn1nc(-c2ccco2)ccc1=O)C1CCCC1 [CBK283707] | 92 |
| COc1ccc([C@@H]2CCN(C(=O)Cc3ccc(F)cc3)C[C@H]2O)cc1 [CBK283709] | 88.8 |
| O=C(CCn1cnc2ccccc21)N1CC[C@@H](c2ccccc2)[C@H](O)C1 [CBK283712] | 102 |
| O=C(Cc1ccc(F)cc1)N1CC[C@@H](c2ccccc2)[C@H](O)C1 [CBK283714] | 84.5 |
| O=C(c1cc(F)cc(F)c1)N1CC[C@@H](c2ccccc2)[C@H](O)C1 [CBK283715] | 79.1 |
| O=C(c1cccc2ncccc12)N1CC[C@@H](c2ccccc2)[C@H](O)C1 [CBK283716] | 84.3 |
| O=C(c1csc2c1CCCC2)N1CCc2c(nc[nH]c2=O)C1 [CBK283717] | 77.7 |
| CCn1cc(C(=O)N2C[C@H](C(=O)OC)[C@@H](c3ccc(F)cc3)C2)cn1 [CBK283719] | 89.7 |
| COC(=O)[C@H]1CN(C(=O)c2cnn(C)c2C)C[C@@H]1c1ccc(F)cc1 [CBK283721] | 84.5 |
| O=C(O)[C@H]1CN(C(=O)CCc2ccco2)C[C@@H]1c1ccc(F)cc1 [CBK283722] | 86.5 |
| Cn1ccnc1C(NC(=O)Cc1ccc(O)cc1)c1ccccc1 (stereo not drawn) [CBK283723] | 87.9 |
| Cc1nc2c(-c3cccs3)c(C)nn2c(O)c1C [CBK283728] | 99.9 |
| CCc1cc(O)n2nc(C)c(-c3cccs3)c2n1 [CBK283730] | 99.3 |
| COC(=O)[C@H]1CN(C(=O)c2cccs2)C[C@@H]1c1ccc(F)cc1 [CBK283732] | 92 |
| O=C(NCCn1nc(-c2ccco2)ccc1=O)c1ccccc1F [CBK283742] | 92.5 |
| COC(=O)c1ccc(/C=C/C2=CCN(C)CC2)cc1 [CBK283744] | 94.5 |
| O=C(c1cccnc1)C1CCN(C(=O)c2cc(F)cc(F)c2)CC1 [CBK283746] | 102 |
| COc1cccc(C2(NC(=O)CCn3nc(C)cc3C)CCCC2)c1 [CBK283749] | 90.7 |
| Cc1nc2c(c(=O)[nH]1)CCN(C(=O)c1cc3c(s1)CCC3)C2 [CBK283751] | 105 |
| Cc1nc2c(c(=O)[nH]1)CCN(C(=O)c1oc3ccccc3c1C)C2 [CBK283752] | 111 |
| Cc1nc2c(c(=O)[nH]1)CCN(C(=O)c1cc(C3CC3)oc1C)C2 [CBK283753] | 92.5 |
| Cc1ccc(C2(C(=O)N3CCC(O)(c4ccccn4)CC3)CC2)cc1 [CBK283754] | 96.4 |
| O=C(Cc1ccc(F)cc1Cl)N1CCC(O)(c2ccccn2)CC1 [CBK283755] | 98.1 |
| COc1ccc([C@@H]2CCN(C(=O)c3cc(F)cc(F)c3)C[C@H]2O)cc1 [CBK283757] | 97 |

| Structure (SMILES) | viability at 28.5 h, 10 µM [%] |
| --- | --- |
| CC(C)n1c(=O)n(CC(=O)NCc2ccccc2)c2cccnc21 [CBK283758] | 99.8 |
| O=C(NC1CC2(CCCCC2)Oc2ccccc21)C1CCOC1 (stereo not drawn) [CBK283760] | 105 |
| O=C(c1cncc(O)c1)N1C2CCC1CC(c1ccc(F)cc1)C2 (stereo not drawn) [CBK283764] | 96.4 |
| O=C(CCc1ccco1)N1CCCC1c1nc2ccccc2[nH]1 (stereo not drawn) [CBK283767] | 104 |
| Cc1cc(C(C)(C)C)oc1C(=O)N1CCn2c(nnc2C2CC2)C1 [CBK283771] | 93.9 |
| O=C(c1cc(F)cc(F)c1)N1CCn2c(nnc2C2CC2)C1 [CBK283772] | 95.9 |
| O=C(Cc1ccc(F)cc1Cl)N1CCn2c(nnc2C2CC2)C1 [CBK283773] | 87.8 |
| CCn1cc(C(=O)N2CCCC2c2nc3ccccc3[nH]2)cn1 (stereo not drawn) [CBK283776] | 109 |
| Cn1ccnc1C(NC(=O)N1CCOCC1)c1ccc(F)c(F)c1 (stereo not drawn) [CBK283781] | 87.4 |
| Cn1ccnc1C(NC(=O)c1ccccn1)c1ccc(F)c(F)c1 (stereo not drawn) [CBK283783] | 91.6 |
| CCn1c(=O)n(CC(=O)N(C)C2CCCCC2)c2cccnc21 [CBK283786] | 86.3 |
| Cc1ccc(C(C)C(=O)N2CCC(O)(c3ccccn3)CC2)cc1 (stereo not drawn) [CBK283787] | 86.7 |
| COC(=O)[C@H]1CN(C(=O)c2cccnc2)C[C@@H]1c1ccc(F)cc1 [CBK283788] | 92.1 |
| O=C(c1ccccc1-c1ccccc1)N1CCn2cnnc2C1 [CBK283789] | 85.2 |
| Cn1c(=O)n(CC(=O)N2CCc3ccccc32)c2cccnc21 [CBK283792] | 106 |
| CC1Cc2ccccc2N1C(=O)Cn1c(=O)n(C)c2ncccc21 (stereo not drawn) [CBK283793] | 90.7 |
| CN1CC=C(/C=C/c2ccc(Sc3ncccn3)o2)CC1 [CBK283797] | 82.3 |
| COc1ccc2cc(C(=O)N3CCC(c4ccncc4)CC3)[nH]c2c1 [CBK283799] | 86.4 |
| CC(C)NC(=O)Cn1nc(-c2cc3c(s2)CCC3)oc1=O [CBK283801] | 88.3 |
| CCN(CC)C(=O)NC(c1ccccc1OC)c1nccn1C (stereo not drawn) [CBK283803] | 80.8 |
| CC1CC(C)CN(C(=O)Cn2ncc3cccn3c2=O)C1 (stereo not drawn) [CBK283805] | 81.2 |
| Cn1ccnc1C(NC(=O)c1cccnc1)c1ccc(F)c(F)c1 (stereo not drawn) [CBK283807] | 100 |
| Cn1ccnc1C(NC(=O)c1ccncc1)c1ccc(F)c(F)c1 (stereo not drawn) [CBK283808] | 104 |
| Cc1ncccc1C(=O)NC(c1ccc(F)c(F)c1)c1nccn1C (stereo not drawn) [CBK283809] | 90.8 |

| Structure (SMILES) | viability at 28.5 h, 10 µM [%] |
| --- | --- |
| CCn1c(=O)n(CC(=O)NCc2cccs2)c2cccnc21 [CBK283811] | 88.3 |
| O=C(c1cccnc1)C1CCN(C(=O)C2CCCCC2)CC1 [CBK283817] | 90 |
| Cc1ccc2cc(C)c3nn(CC(=O)NC4CC4)c(=O)n3c2c1C [CBK283822] | 83.8 |
| CCn1nc2c(C)cc3cc(OC)ccc3n2c1=O [CBK283823] | 74.6 |
| CCn1c(=O)n(CC(=O)N2CCc3ccccc32)c2cccnc21 [CBK283826] | 89.4 |
| CC(NC(=O)Cc1cccs1)c1nc2cccnc2n1C(C)C (stereo not drawn) [CBK283828] | 81 |
| CC(NC(=O)Cc1ccccc1F)c1nc2cccnc2n1C(C)C (stereo not drawn) [CBK283829] | 90.8 |
| CC(NC(=O)Cc1cccc(F)c1)c1nc2cccnc2n1C(C)C (stereo not drawn) [CBK283831] | 98.5 |
| COc1ccccc1C(NC(=O)N(C(C)C)C(C)C)c1nccn1C (stereo not drawn) [CBK283834] | 81.9 |
| O=C(NCCn1nc(-c2cccs2)ccc1=O)c1ccccc1F [CBK283835] | 86.1 |
| O=C(NCCn1nc(-c2cccs2)ccc1=O)C1CCCCC1 [CBK283837] | 90.7 |
| O=C(NCCn1nc(-c2cccs2)ccc1=O)c1ccco1 [CBK283838] | 90.1 |
| O=C(CC1CCCC1)NCCn1nc(-c2cccs2)ccc1=O [CBK283841] | 91.8 |
| O=C(Cc1ccsc1)NCCn1nc(-c2cccs2)ccc1=O [CBK283842] | 96.5 |
| CCn1c(=O)n(CC(=O)N2CC(C)CC(C)C2)c2cccnc21 (stereo not drawn) [CBK283845] | 95.3 |
| OC1(C2CNc3ccccc3C2)CCNCC1 (stereo not drawn) [CBK283847] | 110 |
| Cc1nn(Cc2cccnc2)c(=O)n2cccc12 [CBK283848] | 105 |
| CC(C)N(C(=O)N1CCC(c2cccnc2)CC1)C(C)C [CBK283850] | 97.6 |
| CO[C@H]1CC[C@H](C(=O)NC(c2ccccc2)c2nccn2C)CC1 (stereo partly drawn) [CBK283852] | 93.8 |
| CC(C)n1c(=O)n(C(=O)c2ccco2)c2cccnc21 [CBK283856] | 102 |
| CN1CC=C(/C=C/C2=Cc3ccccc3OC2)CC1 [CBK283857] | 89.1 |
